Experimental data published in patent US20090286813A1, “Thioxanthine Derivatives and Their Use as Inhibitors of MPO” (ASTRAZENECA AB, priority 2006, published 2009).

Biological target: T1, human MPO (Homo sapiens, UniProt P05164)
T1 sequence (P05164 49-745): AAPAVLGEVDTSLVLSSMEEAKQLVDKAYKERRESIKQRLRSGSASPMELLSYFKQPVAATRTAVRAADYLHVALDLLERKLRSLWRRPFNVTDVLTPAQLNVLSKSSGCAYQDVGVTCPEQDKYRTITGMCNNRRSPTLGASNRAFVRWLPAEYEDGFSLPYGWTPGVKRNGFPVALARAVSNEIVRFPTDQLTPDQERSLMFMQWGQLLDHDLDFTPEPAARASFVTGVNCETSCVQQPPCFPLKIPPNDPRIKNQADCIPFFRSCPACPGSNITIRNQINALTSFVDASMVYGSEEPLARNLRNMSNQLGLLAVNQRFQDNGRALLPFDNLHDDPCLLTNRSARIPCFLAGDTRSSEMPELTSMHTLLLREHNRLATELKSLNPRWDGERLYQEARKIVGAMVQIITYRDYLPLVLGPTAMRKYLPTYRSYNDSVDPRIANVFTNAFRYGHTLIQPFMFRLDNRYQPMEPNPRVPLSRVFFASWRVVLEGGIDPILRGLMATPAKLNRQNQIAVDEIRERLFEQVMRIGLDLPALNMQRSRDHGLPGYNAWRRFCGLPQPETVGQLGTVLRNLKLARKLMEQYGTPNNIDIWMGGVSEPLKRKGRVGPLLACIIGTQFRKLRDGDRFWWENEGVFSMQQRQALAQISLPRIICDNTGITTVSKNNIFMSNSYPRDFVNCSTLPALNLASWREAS
Assay: MPO inhibition screen (TMB oxidation, absorbance)
Type: biochemical
Settings: in the presence of tyrosine (final concentration 8 μM); human MPO 2.5 nM
Description: Methods for the determination of MPO inhibitory activity are disclosed in patent application WO 02/090575. The pharmacological activity of compounds according to the invention was tested in the following screen in which the compounds were either tested alone or in the presence of added tyrosine:
Assay buffer: 20 mM sodium/potassium phosphate buffer pH 6.5 containing 10 mM taurine and 100 mM NaCl.
Developing reagent: 2 mM 3,3′,5,5′-tetramethylbenzidine (TMB), 200 μM KI, 200 mM acetate buffer pH 5.4 with 20% DMF.
To 10 μl of diluted compounds in assay buffer, 40 μl of human MPO (final concentration 2.5 nM), with or without 20 μM tyrosine (final concentration, if present, 8 μM), was added and the mixture was incubated for 10 minutes at ambient temperature. Then 50 μl of H2O2 (final concentration 100 μM), or assay buffer alone as a control, were added. After incubation for 10 minutes at ambient temperature, the reaction was stopped by adding 10 μl 0.2 mg/ml of catalase (final concentration 18 μg/ml). The reaction mixture was left for an additional 5 minutes before 100 μl of TMB developing reagent was added. The amount of oxidised 3,3′,5,5′-tetramethylbenzidine formed was then measured after about 5 minutes using absorbance spectroscopy at about […]. IC50 values were then determined using standard procedures.

O=c1[nH]c(=S)n(-c2cccc(OC(F)(F)F)c2)c2nc[nH]c12 [Example 3, 2-thioxo-3-[3-(trifluoromethoxy)phenyl]-1,2,3,7-tetrahydro-6H-purin-6-one]
IC50: 2.75 µM

O=c1[nH]c(=S)n(-c2cnc3ccccc3c2)c2nc[nH]c12 [Example 8, 3-quinolin-3-yl-2-thioxo-1,2,3,7-tetrahydro-6H-purin-6-one]
IC50: 4.47 µM
